Measured values reported in ChEMBL document CHEMBL4507272 (2021).

Assays:
Settings in all cases: Compound concentration 10.0 uM
[1] = target: Sigma intracellular receptor 2 (Homo sapiens) (UniProt Q5BJF2)
[2] = target: 5-hydroxytryptamine receptor 3A (Homo sapiens) (UniProt P46098)
[3] = target: Beta-2 adrenergic receptor (Homo sapiens) (UniProt P07550)
[4] = target: Sodium-dependent serotonin transporter (Homo sapiens) (UniProt P31645)
[5] = target: Alpha-2A adrenergic receptor (Homo sapiens) (UniProt P08913)
[6] = target: T1, GABA-A receptor; anion channel (Rattus norvegicus) (UniProt O09028+P15431+P18506+P18508+P19969+P20236+P23574+P23576+P28471+P28473+P30191+P62813+P63079+P63138+Q91ZM7+Q9ES14)
[7] = target: 5-hydroxytryptamine receptor 2A (Homo sapiens) (UniProt P28223)
[8] = target: Delta-type opioid receptor (Homo sapiens) (UniProt P41143)
[9] = target: Sodium-dependent noradrenaline transporter (Homo sapiens) (UniProt P23975)
[10] = target: 5-hydroxytryptamine receptor 1B (Homo sapiens) (UniProt P28222)
[11] = target: D(1B) dopamine receptor (Homo sapiens) (UniProt P21918)
[12] = target: T1, GABA-A receptor; anion channel (Rattus norvegicus); remark: listed apart in the source
[13] = target: Histamine H2 receptor (Homo sapiens) (UniProt P25021)
[14] = target: 5-hydroxytryptamine receptor 5A (Homo sapiens) (UniProt P47898)
[15] = target: Kappa-type opioid receptor (Homo sapiens) (UniProt P41145)
[16] = target: Alpha-2C adrenergic receptor (Homo sapiens) (UniProt P18825)
[17] = target: 5-hydroxytryptamine receptor 2B (Homo sapiens) (UniProt P41595)
[18] = target: Alpha-2B adrenergic receptor (Homo sapiens) (UniProt P18089)
[19] = target: D(4) dopamine receptor (Homo sapiens) (UniProt P21917)
[20] = target: 5-hydroxytryptamine receptor 1A (Homo sapiens) (UniProt P08908)
[21] = target: Alpha-1A adrenergic receptor (Homo sapiens) (UniProt P35348)
[22] = target: Muscarinic acetylcholine receptor M5 (Homo sapiens) (UniProt P08912)
[23] = target: Muscarinic acetylcholine receptor M2 (Homo sapiens) (UniProt P08172)
[24] = target: D(3) dopamine receptor (Homo sapiens) (UniProt P35462)
[25] = target: 5-hydroxytryptamine receptor 2C (Homo sapiens) (UniProt P28335)
[26] = target: Muscarinic acetylcholine receptor M4 (Homo sapiens) (UniProt P08173)
[27] = target: Beta-1 adrenergic receptor (Homo sapiens, UniProt P08588)
[28] = target: Sodium-dependent dopamine transporter (Homo sapiens) (UniProt Q01959)
[29] = target: Histamine H1 receptor (Homo sapiens) (UniProt P35367)
[30] = target: 5-hydroxytryptamine receptor 6 (Homo sapiens) (UniProt P50406)
[31] = target: Mu-type opioid receptor (Homo sapiens) (UniProt P35372)
[32] = target: Alpha-1D adrenergic receptor (Homo sapiens) (UniProt P25100)
[33] = target: Beta-3 adrenergic receptor (Homo sapiens) (UniProt P13945)
[34] = target: 5-hydroxytryptamine receptor 7 (Homo sapiens) (UniProt P34969)
[35] = target: Muscarinic acetylcholine receptor M3 (Homo sapiens) (UniProt P20309)
[36] = target: D(2) dopamine receptor (Homo sapiens) (UniProt P14416)
[37] = target: Histamine H4 receptor (Homo sapiens) (UniProt Q9H3N8)
[38] = target: Alpha-1B adrenergic receptor (Homo sapiens) (UniProt P35368)

Measured: inhibition

Chain of 5-hydroxytryptamine receptor 2C (Homo sapiens) (P28335 whole entry): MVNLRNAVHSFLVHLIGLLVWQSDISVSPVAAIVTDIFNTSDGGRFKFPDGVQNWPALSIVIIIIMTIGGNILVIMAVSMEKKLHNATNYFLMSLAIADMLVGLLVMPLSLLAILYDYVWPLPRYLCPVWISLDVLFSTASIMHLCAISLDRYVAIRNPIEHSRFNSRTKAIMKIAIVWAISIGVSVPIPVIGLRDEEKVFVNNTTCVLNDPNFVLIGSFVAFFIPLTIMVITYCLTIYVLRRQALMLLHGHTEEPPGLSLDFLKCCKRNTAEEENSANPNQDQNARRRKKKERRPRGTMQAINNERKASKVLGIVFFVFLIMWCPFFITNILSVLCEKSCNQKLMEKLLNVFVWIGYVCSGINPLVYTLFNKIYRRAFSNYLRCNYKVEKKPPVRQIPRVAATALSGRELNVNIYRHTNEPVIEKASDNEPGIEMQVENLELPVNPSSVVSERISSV
Chain of 5-hydroxytryptamine receptor 6 (Homo sapiens) (P50406 whole entry): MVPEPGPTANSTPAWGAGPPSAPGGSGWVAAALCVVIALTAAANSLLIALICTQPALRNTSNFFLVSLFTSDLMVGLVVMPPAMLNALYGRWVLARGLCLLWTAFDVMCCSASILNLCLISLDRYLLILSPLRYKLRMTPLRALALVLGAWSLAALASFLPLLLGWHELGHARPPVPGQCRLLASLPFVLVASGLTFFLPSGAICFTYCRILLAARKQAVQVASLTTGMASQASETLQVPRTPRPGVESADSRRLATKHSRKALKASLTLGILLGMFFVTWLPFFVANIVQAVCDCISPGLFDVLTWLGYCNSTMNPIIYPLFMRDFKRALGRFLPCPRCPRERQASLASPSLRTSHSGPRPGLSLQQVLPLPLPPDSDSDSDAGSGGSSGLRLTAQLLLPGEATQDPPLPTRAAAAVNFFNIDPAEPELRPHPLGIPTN
Chain of Muscarinic acetylcholine receptor M4 (Homo sapiens) (P08173 whole entry): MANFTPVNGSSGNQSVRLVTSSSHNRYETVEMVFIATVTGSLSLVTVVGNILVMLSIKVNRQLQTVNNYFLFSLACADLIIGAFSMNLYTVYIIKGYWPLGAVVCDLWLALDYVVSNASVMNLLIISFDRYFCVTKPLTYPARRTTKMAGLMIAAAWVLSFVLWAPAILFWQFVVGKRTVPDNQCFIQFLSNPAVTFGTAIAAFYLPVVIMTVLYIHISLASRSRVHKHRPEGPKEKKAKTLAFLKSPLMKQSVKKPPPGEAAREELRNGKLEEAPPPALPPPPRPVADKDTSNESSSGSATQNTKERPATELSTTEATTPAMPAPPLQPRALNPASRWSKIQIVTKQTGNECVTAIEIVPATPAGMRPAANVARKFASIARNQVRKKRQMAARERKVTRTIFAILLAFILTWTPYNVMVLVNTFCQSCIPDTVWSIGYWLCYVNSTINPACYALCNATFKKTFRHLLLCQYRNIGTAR
Chain of D(4) dopamine receptor (Homo sapiens) (P21917 whole entry): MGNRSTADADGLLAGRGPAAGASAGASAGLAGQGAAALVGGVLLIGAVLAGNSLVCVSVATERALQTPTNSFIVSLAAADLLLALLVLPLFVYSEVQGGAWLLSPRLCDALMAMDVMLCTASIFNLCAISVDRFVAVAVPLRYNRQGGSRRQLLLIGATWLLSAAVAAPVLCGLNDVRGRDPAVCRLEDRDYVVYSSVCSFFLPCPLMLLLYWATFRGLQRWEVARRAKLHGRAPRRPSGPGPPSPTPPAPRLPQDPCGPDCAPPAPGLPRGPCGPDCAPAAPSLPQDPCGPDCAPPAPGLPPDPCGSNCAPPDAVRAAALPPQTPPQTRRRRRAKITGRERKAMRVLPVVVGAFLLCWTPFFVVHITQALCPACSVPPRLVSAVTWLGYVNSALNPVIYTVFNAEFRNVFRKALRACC
Chain of Muscarinic acetylcholine receptor M2 (Homo sapiens) (P08172 whole entry): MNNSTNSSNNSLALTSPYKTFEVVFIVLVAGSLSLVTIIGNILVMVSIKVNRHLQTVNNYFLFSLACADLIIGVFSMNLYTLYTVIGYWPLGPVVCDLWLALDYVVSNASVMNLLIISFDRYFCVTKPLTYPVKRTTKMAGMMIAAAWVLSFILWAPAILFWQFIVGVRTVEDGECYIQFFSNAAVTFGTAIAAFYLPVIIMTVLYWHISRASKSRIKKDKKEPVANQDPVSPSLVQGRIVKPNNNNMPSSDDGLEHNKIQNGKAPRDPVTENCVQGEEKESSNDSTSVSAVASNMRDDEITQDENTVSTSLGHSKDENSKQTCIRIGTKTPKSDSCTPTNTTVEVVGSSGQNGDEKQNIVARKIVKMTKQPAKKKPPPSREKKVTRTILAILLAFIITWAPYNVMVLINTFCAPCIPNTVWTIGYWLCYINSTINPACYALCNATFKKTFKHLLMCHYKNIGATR
Chain of Alpha-2B adrenergic receptor (Homo sapiens) (P18089 whole entry): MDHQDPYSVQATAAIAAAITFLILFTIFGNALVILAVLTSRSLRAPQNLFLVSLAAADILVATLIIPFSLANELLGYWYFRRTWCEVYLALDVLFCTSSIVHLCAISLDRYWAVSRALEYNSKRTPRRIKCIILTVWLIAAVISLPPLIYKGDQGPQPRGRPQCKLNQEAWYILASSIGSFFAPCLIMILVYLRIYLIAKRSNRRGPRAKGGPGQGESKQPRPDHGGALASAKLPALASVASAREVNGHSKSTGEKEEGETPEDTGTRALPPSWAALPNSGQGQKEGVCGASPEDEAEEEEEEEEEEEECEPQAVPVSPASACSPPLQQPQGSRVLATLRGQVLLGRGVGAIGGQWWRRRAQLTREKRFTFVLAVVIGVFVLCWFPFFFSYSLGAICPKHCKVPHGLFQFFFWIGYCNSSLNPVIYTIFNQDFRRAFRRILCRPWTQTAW
Chain of Beta-1 adrenergic receptor (P08588 whole entry, looked up): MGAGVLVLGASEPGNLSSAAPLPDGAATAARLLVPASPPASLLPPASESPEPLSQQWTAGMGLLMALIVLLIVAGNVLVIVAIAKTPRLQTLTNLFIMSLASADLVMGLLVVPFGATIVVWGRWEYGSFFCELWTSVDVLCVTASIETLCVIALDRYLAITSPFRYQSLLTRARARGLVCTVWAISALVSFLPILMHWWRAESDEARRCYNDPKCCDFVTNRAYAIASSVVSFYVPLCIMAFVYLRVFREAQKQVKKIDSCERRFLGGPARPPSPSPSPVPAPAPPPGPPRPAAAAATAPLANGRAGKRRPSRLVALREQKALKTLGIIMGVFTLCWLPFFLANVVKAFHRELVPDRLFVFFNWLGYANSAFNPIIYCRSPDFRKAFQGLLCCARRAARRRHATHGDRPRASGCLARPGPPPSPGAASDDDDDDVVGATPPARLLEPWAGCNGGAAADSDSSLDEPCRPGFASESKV
Chain of D(3) dopamine receptor (Homo sapiens) (P35462 whole entry): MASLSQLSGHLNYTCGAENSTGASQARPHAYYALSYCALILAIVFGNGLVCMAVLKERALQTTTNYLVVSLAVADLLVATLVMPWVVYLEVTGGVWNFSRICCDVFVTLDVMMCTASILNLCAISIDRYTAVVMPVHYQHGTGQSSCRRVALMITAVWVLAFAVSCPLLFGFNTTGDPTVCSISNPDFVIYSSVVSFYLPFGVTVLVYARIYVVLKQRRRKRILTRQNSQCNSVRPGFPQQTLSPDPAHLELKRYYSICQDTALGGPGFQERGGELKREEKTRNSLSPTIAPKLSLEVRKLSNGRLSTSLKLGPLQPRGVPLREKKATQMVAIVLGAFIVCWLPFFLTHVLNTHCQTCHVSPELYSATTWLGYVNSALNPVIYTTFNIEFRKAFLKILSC
Chain of 5-hydroxytryptamine receptor 1B (Homo sapiens) (P28222 whole entry): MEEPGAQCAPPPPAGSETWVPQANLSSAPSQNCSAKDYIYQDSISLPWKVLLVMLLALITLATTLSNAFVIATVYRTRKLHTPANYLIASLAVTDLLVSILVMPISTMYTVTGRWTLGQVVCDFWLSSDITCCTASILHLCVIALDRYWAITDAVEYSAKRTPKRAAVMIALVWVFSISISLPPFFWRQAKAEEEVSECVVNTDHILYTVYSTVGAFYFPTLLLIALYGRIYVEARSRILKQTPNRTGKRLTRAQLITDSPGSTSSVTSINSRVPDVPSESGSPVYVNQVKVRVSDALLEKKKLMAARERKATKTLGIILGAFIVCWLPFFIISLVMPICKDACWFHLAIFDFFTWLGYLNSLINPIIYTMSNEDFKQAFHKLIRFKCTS
Chain of Beta-3 adrenergic receptor (Homo sapiens) (P13945 whole entry, looked up): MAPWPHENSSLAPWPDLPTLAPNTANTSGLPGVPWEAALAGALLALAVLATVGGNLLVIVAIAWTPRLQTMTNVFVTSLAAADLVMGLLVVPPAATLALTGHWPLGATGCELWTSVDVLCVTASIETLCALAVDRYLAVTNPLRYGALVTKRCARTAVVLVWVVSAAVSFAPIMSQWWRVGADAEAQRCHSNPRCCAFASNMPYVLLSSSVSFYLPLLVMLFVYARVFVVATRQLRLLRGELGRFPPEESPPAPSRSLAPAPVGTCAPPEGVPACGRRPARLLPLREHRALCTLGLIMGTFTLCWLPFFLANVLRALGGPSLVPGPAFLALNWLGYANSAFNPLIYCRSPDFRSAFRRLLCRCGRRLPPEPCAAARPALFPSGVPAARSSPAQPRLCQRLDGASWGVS
Chain of 5-hydroxytryptamine receptor 2B (Homo sapiens) (P41595 whole entry): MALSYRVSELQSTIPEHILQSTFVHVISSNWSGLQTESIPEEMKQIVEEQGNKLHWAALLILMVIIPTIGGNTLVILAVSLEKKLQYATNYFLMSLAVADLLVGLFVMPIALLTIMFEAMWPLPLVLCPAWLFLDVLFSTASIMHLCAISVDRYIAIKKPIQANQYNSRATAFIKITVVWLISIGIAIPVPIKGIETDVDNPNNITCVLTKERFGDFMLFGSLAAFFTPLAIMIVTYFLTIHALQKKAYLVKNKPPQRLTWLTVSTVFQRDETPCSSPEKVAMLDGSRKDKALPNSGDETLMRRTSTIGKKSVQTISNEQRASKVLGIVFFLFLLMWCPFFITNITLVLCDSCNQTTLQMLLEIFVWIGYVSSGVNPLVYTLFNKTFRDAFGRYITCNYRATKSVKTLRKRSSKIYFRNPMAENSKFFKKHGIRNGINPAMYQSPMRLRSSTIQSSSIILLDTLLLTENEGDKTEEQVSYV

CC(=O)C1=C(C)N(c2cccc(C(F)(F)F)c2)C(=O)N[C@H]1c1ccc(C#N)nc1
inactive: [1] 20.9% | [2] 23.7% | [3] 21.6% | [4] 2.85% | [5] -8.89% | [6] 14.7% | [7] -6.25% | [8] 4.95% | [9] -8.06% | [10] 6.75% | [11] 5.12% | [12] -5.84% | [13] 3.4% | [14] 8.86% | [15] -8.67% | [16] 11% | [17] 15.8% | [18] 11.8% | [19] 5.84% | [20] 3.63% | [21] -5.26% | [22] 2.19% | [23] -9.21% | [24] -6.43% | [25] 29% | [26] 2.88% | [27] 8.09% | [28] 1.88% | [29] 5.28% | [30] 14.9% | [31] 2.02% | [32] 7.7% | [33] 17.2% | [34] 13.9% | [35] 27.3% | [36] -1.53% | [37] -0.78% | [38] -8.1%
